According to patent publication US8592428B2 (MSD K. K., priority 2008, dated 2013):
Values after ≈ are worked out from the molar mass of the structure shown.

Legend:
[1] = Solubility in water by solution precipitation method (HPLC); type: physicochemical; settings: water (2% DMSO), kinetic from dmso stock, from 10 mM DMSO solution, 60 minutes stirring at room temperature, compounds of the present invention
Description: For solubility in water, the solubility of a compound in water was determined by a solution precipitation method.
For an HPLC system, Agilent HPLC 1100 system was used. […] For a shaker, Microincubator M-36 (Taitec) was used. For a plate, a 96-deep well plate (Nunc. 260252) was used. For a well cap, Pre-Slit Well Cap for 96 Well PP (NALGENE. 276011) was used. For a filtration plate, MultiScreen Solubility (Millipore; MSSLBPC10) was used. For dispensation, an 8-channel electronic multipipette, Biohit Proline (Biohit), and a 96-well automatic pipetting device, Biomeck 2000 (Biomeck) were used. For a reagent used, a pure solvent for DMSO ultraviolet absorption spectrum (Dojindo 349-01025) and water (MiliQ water, manufactured by Millipore).
For a DMSO solution, a sample was prepared with DMSO to be precisely 10 mM.
Precise dispensation of 10 μL of a DMSO solution into each well of a 96-well plate was performed. Following addition of 490 μL of water to each of the wells and plate-sealing with 96-well Cap (Agilent No. 5042-1389), intense stirring processing of the plate was performed for 60 minutes at room temperature on a shaker. Subsequently, 200 μL of a treatment sample was added to a plate for centrifugal filtration, and centrifugal filtration of the sample was performed to obtain a filtrate. A sample solution was made by adding 200 μl, of a 50% aqueous acetonitrile solution to the provided filtrate.
Precise dispensation of 10 μL of a DMSO solution into each well of a 96-well plate was performed.
Detection was performed using a multi-wavelength detector (190-370 nm). For a column, the above-mentioned column was used at 40° C. A flow rate was set at 1.2 ml/min, and an amount of an injected sample at 20 μL. For a moving phase, a 0.1% aqueous phosphoric acid solution as a liquid A and acetonitrile as a liquid B were used to carry out analyses in accordance with a time schedule described below.
For the analyses, the data of UV 275 nm were adopted. […] Using the calibration curve, regression calculation of concentrations in water was carried out from Area of sample solutions (water).

[2] = molecular target: T1, recombinant human liver GK (Homo sapiens, UniProt P35557); test: Glucokinase-activating effect (Thio-NADH coupled G6PDH assay); type: biochemical; settings: final glucose concentration 2.5 mM, 30° C.; for Emax: OD level of DMSO control = 100%
T1 construct: made in house; host or cells: E. coli
T1 sequence (P35557 1-466 isoform P35557-2): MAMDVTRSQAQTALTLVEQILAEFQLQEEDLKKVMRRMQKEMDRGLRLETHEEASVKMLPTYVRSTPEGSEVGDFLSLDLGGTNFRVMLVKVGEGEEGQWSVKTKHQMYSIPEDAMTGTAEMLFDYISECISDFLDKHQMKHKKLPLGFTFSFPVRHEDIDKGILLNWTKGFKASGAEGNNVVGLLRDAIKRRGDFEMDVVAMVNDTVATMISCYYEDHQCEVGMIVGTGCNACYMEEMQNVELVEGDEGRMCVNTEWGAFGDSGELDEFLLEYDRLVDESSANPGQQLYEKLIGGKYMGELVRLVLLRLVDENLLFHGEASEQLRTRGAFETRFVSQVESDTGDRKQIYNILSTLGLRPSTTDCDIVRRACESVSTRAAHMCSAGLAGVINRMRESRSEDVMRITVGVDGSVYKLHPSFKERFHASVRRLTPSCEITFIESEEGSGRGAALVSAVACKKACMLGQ
Excerpt: The excellent glucokinase-activating effect of the compounds of formula (I) may be determined by a method described in literature (for example, Diabetes, Vol. 45, pp. 1671-1677, 1996), or in accordance with it.
The glucokinase activity may be determined not by directly measuring glucose-6-phosphate but by measuring the level of Thio-NADH, which is produced when a reporter enzyme, glucose-6-phosphate dehydrogenase produces phosphogluconolactone from glucose-6-phosphate, and based on the level, the degree of glucokinase activation by the compound tested may be determined.
In this assay, used was a recombinant human liver GK, which was expressed by E. coli as a FLAG fusion protein therein and was purified by […] M2 AFFINITY GEL (Sigma).
Using a flat-bottomed 96-well plate, the assay was carried out at 30° C. 69 μl of an assay buffer (25 mM Hepes Buffer/pH=7.2, 2 mM MgCl2, 1 mM ATP, 0.5 mM TNAD, 1 mM dithiothreitol) was put into the plate, and 1 μl of a DMSO solution of the compound or DMSO alone as a control was added thereto. Next, 20 μl of an enzyme mixture (FLAG-GK, 20 U/ml G6PDH) cooled in ice was added to it, and 10 μl of a substrate, 25 mM glucose was added to it, and the reaction was initiated (final glucose concentration=2.5 mM).
After the start of the reaction, the increase in the absorbance at 405 nm was measured for 12 minutes at intervals of 30 seconds, and the increase for the first 5 minutes was used for assessing the compound tested. FLAG-GK was added so that the absorbance increase after 5 minutes in the presence of 1% DMSO could be from 0.04 to 0.06.
The OD level of the DMSO control was set as 100%; and the OD level of the test compound at different concentrations was determined. From the OD level at each concentration, Emax (%) and EC50 (μM) were computed and used as the index of the GK-activating potency of the compound.

Compound	solubility at 60 min [1] [µM]	EC50 [2] [µM]	Emax [2] [%]
CC(=O)N1CCC[C@@H]1c1cc2[nH]c(-c3ccc(C(C)(C)O)cn3)cc2cc1Oc1ccc(S(C)(=O)=O)nc1 [Example 9, 6-[(R)-1-acetylpyrrolidin-2-yl]-2-[5-(1,1-dimethylhydroxymethyl)pyridin-2-yl]-5-(6-methylsulfonylpyridin-3-yloxy)-1H-indole]	152 (≈ 81.2 µg/mL)	0.13	–
COCc1ccc(Oc2cc3cc(-c4cnc(CO)cn4)[nH]c3cc2[C@H]2CCCN2C(C)=O)cn1 [Example 16, 6-[(R)-1-acetylpyrrolidin-2-yl]-2-(5-hydroxymethylpyrazin-2-yl)-5-(6-methoxymethylpyridin-3-yloxy)-1H-indole]	> 170	0.17	–
COCc1ccc(Oc2cc3cc(-c4cnccn4)[nH]c3cc2[C@H]2CCCN2C(C)=O)cn1 [Example 17, 6-[(R)-1-acetylpyrrolidin-2-yl]-5-(6-methoxymethylpyridin-3-yloxy)-2-(pyrazin-2-yl)-1H-indole]	> 170	0.08	988
CCN(CC)C(=O)c1ccc(Oc2cc3cc(-c4cnccn4)[nH]c3cc2[C@H]2CCCN2C(C)=O)cn1 [Example 27]	> 170	0.12	957
CCNC(=O)c1ccc(Oc2cc3cc(-c4cnccn4)[nH]c3cc2[C@H]2CCCN2C(C)=O)cn1 [Example 26, 6-[(R)-1-acetylpyrrolidin-2-yl]-5-[6-(N-ethylcarbamoyl)pyridin-3-yloxy]-2-(pyrazin-2-yl)-1H-indole]	129 (≈ 60.7 µg/mL)	0.16	942
COCc1ccc(Oc2cc3cc(-c4ccc(CO)cn4)[nH]c3cc2[C@H]2CCCN2C(C)=O)cn1 [Example 15, 6-[(R)-1-acetylpyrrolidin-2-yl]-2-(5-hydroxymethylpyridin-2-yl)-5-(6-methoxymethylpyridin-3-yloxy)-1H-indole]	168 (≈ 79.4 µg/mL)	0.13	849
CC(=O)N1CCC[C@@H]1c1cc2[nH]c(-c3cnc(C)cn3)cc2cc1Oc1ccc(OCCO)nc1 [Example 13, 6-[(R)-1-acetylpyrrolidin-2-yl]-5-[6-(2-hydroxyethoxy)pyridin-3-yloxy]-2-(5-methylpyrazin-2-yl)-1H-indole]	93.7 (≈ 44.4 µg/mL)	0.23	995
CC(=O)N1CCC[C@@H]1c1cc2[nH]c(-c3cnccn3)cc2cc1Oc1ccc(S(C)(=O)=O)nc1 [Example 2]	> 170	0.09	–
CC(=O)N1CCC[C@@H]1c1cc2[nH]c(-c3cnc(C)cn3)cc2cc1Oc1ccc(S(C)(=O)=O)nc1 [Example 3, 6-[(R)-1-acetylpyrrolidin-2-yl]-5-(6-methylsulfonylpyridin-3-yloxy)-2-(5-methylpyrazin-2-yl)-1H-indole]	> 170	0.12	–
CC(=O)N1CCC[C@@H]1c1cc2[nH]c(-c3cnccn3)cc2cc1Oc1ccc(C(=O)N(C)CCO)nc1 [Example 28]	> 170	0.1	–
CC(=O)N1CCC[C@@H]1c1cc2[nH]c(-c3ccn(C)n3)cc2cc1Oc1ccc(S(C)(=O)=O)nc1 [Example 4, 6-[(R)-1-acetylpyrrolidin-2-yl]-2-(1-methyl-1H-pyrazol-3-yl)-5-(6-methylsulfonylpyridin-3-yloxy)-1H-indole]	> 170	0.18	943
CC(=O)N1CCC[C@@H]1c1cc2[nH]c(-c3cnc(CO)cn3)cc2cc1Oc1ccc(S(C)(=O)=O)nc1 [Example 10, 6-[(R)-1-acetylpyrrolidin-2-yl]-2-(5-hydroxymethylpyrazin-2-yl)-5-(6-methylsulfonylpyridin-3-yloxy)-1H-indole]	95.1 (≈ 48.3 µg/mL)	0.11	–
CC(=O)N1CCC[C@@H]1c1cc2[nH]c(-c3cnc(C)cn3)cc2cc1Oc1ccc(CO)nc1 [Example 7, 6-[(R)-1-acetylpyrrolidin-2-yl]-5-(6-hydroxymethylpyridin-3-yloxy)-2-(5-methylpyrazin-2-yl)-1H-indole]	> 170	0.12	–
CNC(=O)c1ccc(-c2cc3cc(Oc4ccc(S(C)(=O)=O)nc4)c([C@H]4CCCN4C(C)=O)cc3[nH]2)nc1 [Example 5, 6-[(R)-1-acetylpyrrolidin-2-yl]-2-[5-(N-methylcarbamoyl)pyridin-2-yl]-5-(6-methylsulfonylpyridin-3-yloxy)-1H-indole]	112 (≈ 59.5 µg/mL)	–	–
